Results taken from patent publication US8691864B2, “Agents useful for reducing amyloid precursor protein and treating dementia and methods of use thereof” (priority 2000, dated 2014).

Key:
SK-N-SH cells = experiment: LDH assay / cell number and viability, SK-N-SH cells; type: cell-based, human; settings: for toxicity by cell number and viability (LDH measurement): cymserine and analogs
Source text: Measurement of released lactate dehydrogenase (LDH) in the conditioned medium was undertaken as a marker of cell viability and integrity, as described previously (Lahiri et al., 1997 and 1998).
This was not associated with cellular dysfunction, as determined by measurement of LDH levels versus untreated controls (FIG. 4C).

βAPP [1] = experiment: βAPP protein levels in SH-SY5Y cell lysates, western blot; type: cell-based, human; settings: 5 μM, 0.5, 1, 2 and 4 hours
Protocol: (§1) SK-N-SH neuroblastoma cells were cultured on 60 mm dishes at a concentration of 3×10^6 cells, and SH-SY-5Y neuroblastoma and U373 astrocytorna cell lines were plated in 100 mm dishes at a concentration of 3×10^5 cells. The cells were allowed to grow in complete medium ([…], 2 mM glutamine in DMEM) for 3 to 4 days until they reached 70% confluence. To start the experiment, spent medium was removed and replaced with fresh medium (SKNSH—4 ml of DMEM+0.5% FBS; U373—5 ml of DMEM+2.5% FBS) containing 0, 5, or 50 μM phenserine. The cells were incubated at 37° C., 5% CO2 for the specific times indicated. Different media and sera were purchased from Life Technologies (Gaithersberg, Md.).
At each time point, the spent medium was collected and stored at −70° C. for later analysis of secretory βAPP levels. The cells were washed twice with PBS, pH 7.4 and incubated on ice for 15 min for lysis with 100 μL of lysis buffer (20 mM HEPES, 2 mM EGTA, 50 mM (β-glycophosphate, 1 mM sodium orthovanadate, 1% Triton X-100, 10% glycerol) containing appropriate protease inhibitors (2 mM PMSF, 100 μg/mL aprotinin, 25 μM leupeptin and 20 μg/mL soybean trypsin inhibitor). Each lysate was microcentrifuged for 15 min at 14 000 rpm. Protein levels of the supernatant were analyzed by the Bradford protein assay (BioRad, Melville, N.Y.). […]

cholinesterase [2] = type: biochemical
total Aβ peptide = experiment: total Aβ ELISA in SK-N-SH conditioned medium; type: cell-based, human; settings: for Aβ peptide levels: cymserine and analogs
Protocol: Total Aβ peptide levels in SH-SY-SY and SK-N-SH cultured samples were assayed by a sensitive ELISA (Suzuki et al., 1994). For total Aβ measurements in conditioned medium, the rabbit polyclonal antibody #3160 (1-40 residues of Aβ) was used as a capture antibody for all species of Aβ peptide (Aβ1-40 and Aβ1-42) while monoclonal antibody 4G8 (17-25 residues of Aβ) was used to detect Aβ peptide levels, and the values were expressed as the mean of six independent assays.
Likewise, (+)-phenserine reduced BAPP protein levels and total Aβ peptide levels at 16 hours (FIG. 5).

βAPP [3] = experiment: βAPP levels in SK-N-SH cells (conditioned media and cell lysates), western blot; type: cell-based, human
Protocol: as §1
At each time point, the spent medium was collected and stored at −70° C. for later analysis of secretory βAPP levels. The cells were washed twice with PBS, pH 7.4 and incubated on ice for 15 min for lysis with 100 μL of lysis buffer (20 mM HEPES, 2 mM EGTA, 50 mM (β-glycophosphate, 1 mM sodium orthovanadate, 1% Triton X-100, 10% glycerol) containing appropriate protease inhibitors (2 mM PMSF, 100 μg/mL aprotinin, 25 μM leupeptin and 20 μg/mL soybean trypsin inhibitor). Each lysate was microcentrifuged for 15 min at 14 000 rpm. Protein levels of the supernatant were analyzed by the Bradford protein assay (BioRad, Melville, N.Y.).
Fifteen μg of protein from each sample was mixed with the appropriate volume of 5× Laemmli buffer and boiled for 5 min at 100° C. The samples were loaded onto a 10% NuPAGE Bis-Tris gel in 1×NuPAGE MOPS SDS running buffer (NOVEX, San Diego, Calif.) and the proteins separated at 200 V for 45 min. The gels then were transferred onto nitrocellulose at 25 V for 1.5 h. The blots were blocked with 5% non-fat dry milk in 10 mM Tris, pH 8.0 containing 150 mM NaCl for 1 h and washed twice for 15 min in large volumes of TBST (10 mM Tris, pH 8.0, 150 mM NaCl and 0.05% Tween 20). Each blot was probed for 2 h with either 22C11 anti-βAPP-terminal antibody (Boehringer Mannheim, Indianapolis, Ind.), diluted to a concentration of 2.5 μg/mL or anti-activated ERK antibody (Promega, Madison, Wis.), diluted to a concentration of 25 ng/mL. The blots were washed twice for 15 min in TBST and placed in secondary antibody, anti-mouse IgG- or anti-rabbit IgG conjugated to horse radish peroxidase (Sigma, St. Louis, Mo.), for 30 min. Three final TBST washes of 20 min duration each were performed before the samples were detected by chemiluminescence and exposed to film, as per the manufacturer's instructions (Amersham Life Science Inc., Arlington Heights, Ill.). Additionally, all blots also were stained with Ponceau S (Sigma, St. Louis, Mo.) to determine equivalent loading of samples. Densitometric quantification of blots was undertaken by using a […] and NIH-IMAGE (version 4.1).
Western blots of conditioned media (FIG. 4A) and cell lysates (FIG. 4B) were probed; with a N-terminal directed anti-βAPP antibody.
3×10^6 SK-N-SH cells were plated on 60 mm dishes with DMEM containing 10% FBS. After 36 hours, cells were incubated with low serum medium for 1 hour. Thereafter, the medium was replaced with fresh low serum medium (0.5% FBS). […] The cells were incubated with and without phenserine for 16 hours. At the stated time (4, 8 and 16 hrs), 200 μl of medium was transferred from each dish for assessment of extracellular APP levels. At the end of experiments (16 hrs), the cells were lysed and collected for assessment of intracellular APP levels.
15 μL of medium samples and 15 μg of total protein from each lysed samples were loaded onto 10% trys-glycine gels, and the protein was separated at 150 V for 90 min. The gels were transferred onto polyvinylidene difluoride paper and probed with an affinity-purified anti-APP antibody (22C11), which recognizes the ectodomain of APP (residues 66-81). The APP signals were detected by chemiluminescence and exposed to film. The quantitation of the signals was determined by using a CD camera and NIH-IMAGE (version 4.0). […]

[4] = in vivo toxicity, i.p. administration to rodents; settings: 20 mg/kg
Protocol: This persisted for an hour and is related to central cholinergic overdrive. […] Animals were incapacitated at 20 mg/kg (N=3 per dose group), and 2 were killed when moribund.

cholinesterase [5] = settings: Greig et al., 1995; Brossi et al., 1996; cited from earlier work
ERK½ = experiment: phosphorylated ERK in SH-SY5Y cells, western blot; type: cell-based, human; settings: 5 μM, 0.5-4 hours
Protocol: Fifteen μg of protein from each sample was mixed with the appropriate volume of 5× Laemmli buffer and boiled for 5 min at 100° C. The samples were loaded onto a 10% NuPAGE Bis-Tris gel in 1×NuPAGE MOPS SDS running buffer (NOVEX, San Diego, Calif.) and the proteins separated at 200 V for 45 min. The gels then were transferred onto nitrocellulose at 25 V for 1.5 h. The blots were blocked with 5% non-fat dry milk in 10 mM Tris, pH 8.0 containing 150 mM NaCl for 1 h and washed twice for 15 min in large volumes of TBST (10 mM Tris, pH 8.0, 150 mM NaCl and 0.05% Tween 20). […] Three final TBST washes of 20 min duration each were performed before the samples were detected by chemiluminescence and exposed to film, as per the manufacturer's instructions (Amersham Life Science Inc., Arlington Heights, Ill.). […] Densitometric quantification of blots was undertaken by using a […] and NIH-IMAGE (version 4.1).
SH-SY5Y cells were incubated with 5 μM (+)-phenserine or (−) phenserine for 0, 0.5, 1, 2 and 4 hours to determine the effect of the drug on βAPP protein levels. Western blots of cell lysates containing 15 μg of total protein per lane were analyzed. […] Stress activated transcription kinases, p38 and JNK, were not detected in the samples. […]

Aβ1-42 = Aβ1-42 levels in cerebral cortex of transgenic mice, ELISA; type: in vivo; settings: formic acid extraction, 3 weeks daily
Protocol: (§2) Greater reductions could be achieved, but, as previously reported, doses of >5 mg/kg produce cholinergic side effects for the (−)-enantiomer but not for the (+)-enantiomer.
(§3) Samples of cerebral cortex from the transgenic mice then were analyzed for β amyloid peptide (Aβ) levels. Specifically, Aβ1-40 and Aβ1-42 levels, following formic acid extraction, were determined by ELISA assay (Suzuki et al., 1994).

Aβ1-40 = Aβ1-40 levels in cerebral cortex of transgenic mice, ELISA; type: in vivo; settings: formic acid extraction, 3 weeks daily
Protocol: as §2, §3

βAPP and Aβ = settings: neuronal cells in vitro; Lahiri et al., 1998; cited from earlier work

SMILES	anticholinesterase activity / action (cholinesterase [2])	toxicity by cell number and viability (LDH measurement) (SK-N-SH cells; SK-N-SH)	Aβ peptide levels (total Aβ peptide)	βAPP protein levels (βAPP [3]; cymserine and analogs (FIG. 7))	other results
CN1CCC2(C)c3cc(OC(=O)Nc4ccccc4)ccc3N(C)C12 (single isomer, unassigned; (+)) [(+)-phenserine, (+)-Phenserine]	devoid of anticholinesterase activity	–	–	–	toxicity by cell number and viability (LDH levels) (SK-N-SH cells; SK-N-SH, 16 hours (FIG. 5)): not associated with toxicity; βAPP levels in the cell lysates (βAPP [1]): slowly decreased at each time point; total Aβ peptide levels (total Aβ peptide; 16 hours (FIG. 5)): reduced; BAPP protein levels (βAPP [3]; 16 hours (FIG. 5)): reduced; clinical signs [4]: without clinical symptoms and appeared normal; anti-cholinesterase activity (cholinesterase [5]): no anti-cholinesterase activity; ERK½ (phosphorylated) detection (ERK½): peaked at the 30 minute to 1 hour period
CC(C)c1ccc(NC(=O)Oc2ccc3c(c2)[C@]2(C)CCNC2N3)cc1 (single isomer, unassigned; (-)) [(−)-N^1,N^8-bisnorcymserine]	–	no toxicity	also reduced	reduced βAPP protein levels	toxicity at higher concentrations (SK-N-SH cells): toxic
CC(C)c1ccc(NC(=O)Oc2ccc3c(c2)[C@@]2(C)CCN(C)[C@H]2N3C)cc1 [(+)-cymserine, (+)-Cymserine]	devoid of it	no toxicity	also reduced	reduced βAPP protein levels	–
CC(C)c1ccc(NC(=O)Oc2ccc3c(c2)[C@]2(C)CCN(CCc4ccccc4)[C@@H]2N3C)cc1 [(−)-N^1-phenethylcymserine]	–	no toxicity	also reduced	reduced βAPP protein levels	toxicity at higher concentrations (SK-N-SH cells): toxic; reduction of Aβ1-42 levels (Aβ1-42): 47%; reduction of Aβ1-40 levels (Aβ1-40): 54%
CC(C)c1ccc(NC(=O)Oc2ccc3c(c2)[C@]2(C)CCN(C)[C@@H]2N3C)cc1 [(−)-cymserine]	possessed anticholinesterase action	no toxicity	also reduced	reduced βAPP protein levels	–
CNC(=O)Oc1ccc2c(c1)[C@]1(C)CCN(C)[C@@H]1N2C [(−)-physostigmine, reference compound]	–	–	–	–	total Aβ peptide levels (total Aβ peptide; 50 μM): no reduction or change; βAPP protein levels (βAPP [3]; 50 μM): no reduction or change
Nc1c2c(nc3ccccc13)CCCC2 [tacrine]	–	–	–	–	βAPP and Aβ (βAPP and Aβ): decrease βAPP and Aβ
